For orientation: CC50 means the concentration that lowers cell viability or growth by half. Low readings indicate greater toxicity to the cells, high ones lower toxicity to the cells. In general, IC50 refers to the concentration that inhibits the measured activity by half. Read a low IC50 as higher potency.

Data set [1] can be described thus: Cytotoxicity assay (MTT) on RAW264.7 cells. The settings on record: mouse, RAW264.7 cell growth inhibition, MTT method. Format: cell-based. Here is the method:
Example 32: Cytotoxicity Assay of Compounds
(§1) RAW264.7 cells were cultured in vitro using DMEM high glucose medium containing 10% fetal bovine serum at 37° C. under 5% CO2 for routine maintenance culture and passage.
(§2) S2. Compound Intervention
The logarithmic growth phase cells were collected and formulated into a cell suspension at a concentration of 1×10^5 cells/mL, and the cell suspension was added to a 96-well cell culture plate. After culturing in a carbon dioxide incubator for 24 hours, the culture medium was replaced with a medium containing the compound at different concentrations to continue culturing for 2 days, and the cytotoxicity was detected on day 3. The compound to be tested was prepared into solutions of different concentrations using DMSO. Three wells were set for each concentration, and a control group without the compound treatment was set for comparison. […]
(§3) S4. Processing of Results
The RAW264.7 cell growth inhibition rate by each compound was calculated according to the following equation: […]
A cell growth inhibition curve of each compound was plotted with the RAW264.7 cell growth inhibition rate as the ordinate and the logarithm of the compound concentration as the abscissa. According to the inhibition rate of each compound on the cells, the 50% cytotoxic concentration CC50 was calculated, i.e., the concentration of the compound that is required for 50% inhibition of cell growth.
(§4) In addition, a selective inhibition constant of each compound was calculated according to the equation: selective inhibition constant (SI)=CC50/IC50, in order to evaluate the administration safety of each compound.
(Tetrazolium assays rely on reduction of a dye to a coloured formazan, in cell work by metabolically active cells.)

Data set [2] deals with RANKL-induced osteoclast differentiation of RAW264.7 cells. As to the kind of experiment: Osteoclast differentiation inhibition experiment (RANKL-induced, TRAP staining). Type of data set: cell-based. To be noted: for IC50: RAW264.7 cells, 100 ng/ml RANKL, 5 days, TRAP staining, osteoclasts with 3 or more nuclei counted; for Therapeutic index SI (CC50/IC50): selective inhibition constant = CC50 (RAW264.7 cytotoxicity) / IC50 (osteoclast differentiation). As for the experimental part:
Example 33: Osteoclast Differentiation Inhibition Experiment
as §1, §2
The logarithmic growth phase cells were collected and formulated into a cell suspension at a concentration of 2×10^4 cells/mL, and the cell suspension were added to a 96-well cell culture plate. After culturing in a carbon dioxide incubator for 24 hours, the culture medium was replaced with a medium containing 100 ng/ml RANKL and the compound at different concentrations to continue culturing for 5 days, while changing the medium containing the same RANKL concentration and compound concentration every 2 days. The osteoclasts were stained with the TRAP staining method and measured on day 5. Three wells were set for each concentration, and a control group without the compound treatment was set for comparison.
The differentiated osteoclasts were stained with TRAP kit, and the number of osteoclasts fused by 3 or more nuclei was counted.
as §3
The inhibition rate of each compound on RANKL-induced osteoclast differentiation was calculated according to the following equation: […]
An osteoclast differentiation inhibition curve of each compound was plotted with the osteoclast differentiation inhibition rate as the ordinate and the logarithm of the compound concentration as the abscissa. According to the osteoclast differentiation inhibition rate by each compound, the half maximal inhibitory concentration IC50 was calculated, i.e., the concentration of the compound that is required for 50% osteoclast differentiation inhibition.
as §4
Based on the value of the selective index SI=CC50/IC50, the anti-osteoporotic differentiation effect of the compound was evaluated according to the following criteria.

The molecule `CCOC(=O)c1sc(NC(=O)/C(=N/Nc2ccccc2O)C(C)=O)nc1C` [Compound 5] came in with a CC50 at 2 days in data set [1] of 52.6 µM. In addition, in data set [2] (Mus musculus, RAW264.7, 120 h), it took 2450 nM to reach half-maximal inhibition (IC50). Besides, the “Therapeutic index SI (CC50/IC50)” value in data set [2] is listed as 21.
Molecule `CCOC(=O)c1sc(NC(=O)/C(=N/Nc2ccccc2C(=O)OC)C(C)=O)nc1C` [Compound 4] yielded a CC50 at 2 days in data set [1] of 82.1 µM. Moreover, in data set [2] (Mus musculus, RAW264.7, 120 h), the IC50 is 1260 nM. The “Therapeutic index SI (CC50/IC50)” value in data set [2] was found to be 65.
Molecule `CC(=O)/C(=N\Nc1ccccc1C(=O)O)C(=O)Nc1nccs1` [Compound 22] returned a CC50 at 2 days in data set [1] of 149 µM. This molecule also registered an IC50 in data set [2] (Mus musculus, RAW264.7, 120 h) of 3660 nM. In addition, the “Therapeutic index SI (CC50/IC50)” value in data set [2] came out at 41.
Molecule `CC(=O)/C(=N\Nc1ccccc1C(=O)O)C(=O)NC1CCNCC1` [Compound 26] showed a CC50 at 2 days in data set [1] of 65.8 µM. Further, 8850 nM corresponded to half-maximal inhibition in data set [2] (Mus musculus, RAW264.7, 120 h) (IC50). Besides, the “Therapeutic index SI (CC50/IC50)” value in data set [2] stood at 7.
The corresponding values for `CCOC(=O)c1sc(NC(=O)/C(=N/Nc2c(C)cccc2C(=O)O)C(C)=O)nc1C` [Compound 7] are 62.8 µM, 990 nM and 63.
The corresponding values for `CCOC(=O)c1sc(NC(=O)/C(=N/Nc2cc(F)ccc2C(=O)O)C(C)=O)nc1C` [Compound 11] are 57.2 µM, 1020 nM and 56.
In data set [1], `CC(=O)/C(=N\Nc1ccccc1C(=O)O)C(=O)N1CCOCC1` [Compound 28] returned a half-maximal cytotoxic concentration (CC50) at 2 days of 76.2 µM. In data set [2] (Mus musculus, RAW264.7, 120 h), this molecule had an IC50 of 990 nM. Further, in data set [2], the “Therapeutic index SI (CC50/IC50)” value amounted to 77.
For `CCOC(=O)c1sc(NC(=O)/C(=N/Nc2ccc(F)cc2C(=O)O)C(C)=O)nc1C` [Compound 10], in data set [1], the CC50 at 2 days is 123 µM. In data set [2] (Mus musculus, RAW264.7, 120 h), this molecule returned an IC50 of 400 nM. Moreover, the “Therapeutic index SI (CC50/IC50)” value in data set [2] came out at 308.
The molecule `CC(=O)/C(=N\Nc1ccccc1C(=O)O)C(=O)Nc1ccccn1` [Compound 25] showed a CC50 at 2 days in data set [1] of 81.2 µM. Also, the IC50 in data set [2] (Mus musculus, RAW264.7, 120 h) stood at 360 nM; in data set [2] it was 270 nM. For the same molecule, in data set [2], the “Therapeutic index SI (CC50/IC50)” value stood at 301.
Take `CC(=O)/C(=N\Nc1ccccc1C(=O)O)C(=O)Nc1nc(C)cs1` [Compound 21]: in data set [1], the CC50 at 2 days came out at 220 µM. Moreover, in data set [2] (Mus musculus, RAW264.7, 120 h), the half-maximal inhibitory concentration (IC50) stood at 2580 nM. Besides, in data set [2], the “Therapeutic index SI (CC50/IC50)” value is recorded as 85.
Molecule `CC(=O)/C(=N\Nc1ccccc1C(=O)O)C(=O)N1CCc2ccccc2C1` [Compound 27] gave a CC50 at 2 days in data set [1] of 135 µM. In data set [2] (Mus musculus, RAW264.7, 120 h), this molecule gave an IC50 of 9030 nM. Moreover, the “Therapeutic index SI (CC50/IC50)” value in data set [2] came to 15.
In data set [1], `CCOC(=O)c1sc(NC(=O)/C(=N/Nc2ccccc2C(=O)O)C(C)=O)nc1C` [Compound 1] showed a CC50 at 2 days of 62.5 µM. Moreover, the IC50 in data set [2] (Mus musculus, RAW264.7, 120 h) worked out at 1240 nM. The “Therapeutic index SI (CC50/IC50)” value in data set [2] is on record as 50.
Regarding `CCOC(=O)c1sc(NC(=O)/C(=N/Nc2cc(C)ccc2C(=O)O)C(C)=O)nc1C` [Compound 8], the CC50 at 2 days in data set [1] is 57.2 µM. The same molecule registered an IC50 in data set [2] (Mus musculus, RAW264.7, 120 h) of 3850 nM. The “Therapeutic index SI (CC50/IC50)” value in data set [2] came out at 15.
The corresponding values for `CCOC(=O)c1sc(NC(=O)/C(=N/Nc2cc(C(=O)O)ccc2C(=O)O)C(C)=O)nc1C` [Compound 19] are 202 µM, 10200 nM and 20.
As for `CCOC(=O)c1sc(NC(=O)/C(=N/Nc2c(C(=O)O)cccc2C(=O)O)C(C)=O)nc1C` [Compound 18], the CC50 at 2 days in data set [1] stood at 125 µM. Besides, the IC50 in data set [2] (Mus musculus, RAW264.7, 120 h) worked out at 460 nM. In addition, the “Therapeutic index SI (CC50/IC50)” value in data set [2] amounted to 271.
Molecule `CCOC(=O)c1sc(NC(=O)/C(=N/Nc2ccccc2CO)C(C)=O)nc1C` [Compound 6] registered a CC50 at 2 days in data set [1] of 77.9 µM. In addition, in data set [2] (Mus musculus, RAW264.7, 120 h), the IC50 is 12100 nM. For the same molecule, the “Therapeutic index SI (CC50/IC50)” value in data set [2] is 6.
As to `CCOC(=O)c1sc(NC(=O)/C(=N/Nc2ccc(Cl)cc2C(=O)O)C(C)=O)nc1C` [Compound 15], the CC50 at 2 days in data set [1] was determined as 33.9 µM. In data set [2] (Mus musculus, RAW264.7, 120 h), this molecule came in with an IC50 of 1560 nM. Moreover, the “Therapeutic index SI (CC50/IC50)” value in data set [2] worked out at 22.
In turn, `CCOC(=O)c1sc(NC(=O)/C(=N/Nc2cc(C#N)ccc2C(=O)O)C(C)=O)nc1C` [Compound 13] returned a CC50 at 2 days in data set [1] of 62.3 µM. The molecule also registered an IC50 in data set [2] (Mus musculus, RAW264.7, 120 h) of 880 nM. Also, in data set [2], the “Therapeutic index SI (CC50/IC50)” value worked out at 71.
The corresponding values for `CCOC(=O)c1sc(NC(=O)/C(=N/Nc2ccc(C)cc2C(=O)O)C(C)=O)nc1C` [Compound 9] are 89 µM, 4630 nM and 19.
The corresponding values for `CC(=O)/C(=N\Nc1ccccc1C(=O)O)C(=O)Nc1ccccc1` [Compound 24] are 75.2 µM, 11100 nM and 7.
As to `CCOC(=O)c1sc(NC(=O)/C(=N/Nc2cccc(C(=O)O)c2)C(C)=O)nc1C` [Compound 3], the CC50 at 2 days in data set [1] amounted to 81.2 µM. For the same molecule, in data set [2], inhibition was half-maximal at 50 nM (IC50) and the “Therapeutic index SI (CC50/IC50)” value amounted to 1625.
Regarding `CCOC(=O)c1sc(NC(=O)/C(=N/Nc2ccncc2C(=O)O)C(C)=O)nc1C` [Compound 16], in data set [1], it took 451 µM to reach half-maximal cytotoxicity (CC50 at 2 days). For the same molecule, half-maximal inhibition in data set [2] (Mus musculus, RAW264.7, 120 h) (IC50) required 22300 nM. Moreover, in data set [2], the “Therapeutic index SI (CC50/IC50)” value is listed as 20.
In data set [1], `CC(=O)/C(=N\Nc1ccccc1C(=O)O)C(=O)Nc1nc2ccccc2s1` [Compound 23] yielded a CC50 at 2 days of 41.1 µM. In addition, the midpoint of inhibition in data set [2] (Mus musculus, RAW264.7, 120 h), the IC50, lay at 780 nM. Moreover, in data set [2], the “Therapeutic index SI (CC50/IC50)” value was 53.
In data set [1], `CC(=O)/C(=N\Nc1ccccc1C(=O)O)C(=O)Nc1ccc(C#N)cn1` [Compound 29] displayed a 50% cytotoxic concentration (CC50) at 2 days of 119 µM. In addition, in data set [2] (Mus musculus, RAW264.7, 120 h), half-maximal inhibition (IC50) required 3210 nM. Besides, the “Therapeutic index SI (CC50/IC50)” value in data set [2] came to 37.
On to `CCOC(=O)c1sc(NC(=O)/C(=N/Nc2ccc([N+](=O)[O-])cc2C(=O)O)C(C)=O)nc1C` [Compound 14], for which, in data set [1], the CC50 at 2 days worked out at 41.9 µM. In addition, in data set [2] (Mus musculus, RAW264.7, 120 h), it took 890 nM to reach half-maximal inhibition (IC50). Moreover, the “Therapeutic index SI (CC50/IC50)” value in data set [2] is reported as 47.
On to `CCOC(=O)c1sc(NC(=O)/C(=N/Nc2ccc(N)cc2C(=O)O)C(C)=O)nc1C` [Compound 20], for which it took 49.1 µM to reach half-maximal cytotoxicity in data set [1] (CC50 at 2 days). In addition, the IC50 in data set [2] (Mus musculus, RAW264.7, 120 h) worked out at 1230 nM. The “Therapeutic index SI (CC50/IC50)” value in data set [2] amounted to 40.
The corresponding values for `CCOC(=O)c1sc(NC(=O)/C(=N/Nc2ccc(C(=O)O)cc2)C(C)=O)nc1C` [Compound 2] are 69.2 µM, 730 nM and 95.
As to `CCOC(=O)c1sc(NC(=O)/C(=N/Nc2c(C#N)cccc2C(=O)O)C(C)=O)nc1C` [Compound 12], the midpoint of cytotoxicity in data set [1], the CC50 at 2 days, lay at 391 µM. In data set [2], half-maximal inhibition (IC50) required 230 nM and the “Therapeutic index SI (CC50/IC50)” value turned out to be 1701.
For the molecule `CC(=O)/C(=N\Nc1ccccc1C(=O)O)C(=O)Nc1cccc(O)n1` [Compound 30], the CC50 at 2 days in data set [1] came to 198 µM. The same molecule came in with an IC50 in data set [2] (Mus musculus, RAW264.7, 120 h) of 15400 nM. In addition, the “Therapeutic index SI (CC50/IC50)” value in data set [2] worked out at 13.

The values are drawn from US12252459B2, “Hydrazone amide derivatives and use thereof in preparation of anti-osteoporosis drugs” (SHENZHEN CELL INSPIRE PHARMACEUTICAL DEVELOPMENT CO., LTD., priority 2019, dated 2025).
